Calls of active or inactive are those of the source. The rule behind the calls is not given here.
Tests used:
HT-29 [1] = experiment: Inhibition of TNF-alpha-induced ROS production in human HT-29 cells at 10 uM preincubated for 1 hr followed by TNF-alpha challenge measured after 30 mins by DCF-DA dye-based fluorescence microscopy; type: functional, cell-based
HT-29 [2] = experiment: Inhibition of TNF-alpha-induced ICAM-1 expression in human HT-29 cells at 10 uM preincubated for 1 hr followed by TNF-alpha challenge measured after 3 hrs by Western blot analysis; type: functional, cell-based
HT-29 [3] = experiment: Inhibition of TNF-alpha-induced MCP-1 expression in human HT-29 cells at 10 uM preincubated for 1 hr followed by TNF-alpha challenge measured after 3 hrs by Western blot analysis; type: functional, cell-based
HT-29 [4] = experiment: Inhibition of TNF-alpha-induced adhesion of BCECF-labeled human U937 cells to human HT-29 cells at 10 uM preincubated for 1 hr followed by TNF-alpha challenge measured after 3 hrs by fluorescence microscopic method relative to control; type: functional
HT-29 [5] = experiment: Inhibition of TNF-alpha-induced NFkappa-B transcriptional activity in human HT-29 cells at 10 uM preincubated for 1 hr followed by TNF-alpha challenge measured after 3 hrs by dual luciferase reporter gene assay; type: functional, cell-based
HT-29 [6] = experiment: Inhibition of TNF-alpha-induced adhesion of BCECF-labeled human U937 cells to human HT-29 cells preincubated for 1 hr followed by TNF-alpha challenge measured after 3 hrs by fluorescence microscopic method; type: functional, cell-based
HT-29 [7] = experiment: Inhibition of LPS-induced TNF-alpha expression in human HT-29 cells at 10 uM preincubated for 1 hr followed by TNF-alpha challenge measured after 3 hrs by Western blot method; type: functional, cell-based
HT-29 [8] = experiment: Inhibition of TNF-alpha-induced adhesion of BCECF-labeled human U937 cells to human HT-29 cells at […] preincubated for 1 hr followed by TNF-alpha challenge measured after 3 hrs by fluorescence microscopic method relative to control; type: functional
HT-29 [9] = experiment: Inhibition of LPS-induced TNF-alpha expression in human HT-29 cells at […] preincubated for 1 hr followed by TNF-alpha challenge measured after 3 hrs by Western blot method; type: functional, cell-based
Rattus norvegicus [10] = experiment: Antiinflammatory activity in TNBS-induced Sprague-Dawley rat colitis model assessed as recovery in body weight decrease at 300 mg/kg, po qd administered for 5 days measured on day 6; type: functional, organism-based
Rattus norvegicus [11] = experiment: Antiinflammatory activity in TNBS-induced Sprague-Dawley rat colitis model assessed as recovery of colon tissue edematous inflammation at 300 mg/kg, po qd administered for 5 days measured on day 6; type: functional, organism-based
HT-29 [12] = experiment: Inhibition of TNF-alpha-induced ROS production in human HT-29 cells at 100 uM preincubated for 1 hr followed by TNF-alpha challenge measured after 30 mins by DCF-DA dye-based fluorescence microscopy; type: functional, cell-based

Row | Compound | inhibition at 10 µM (HT-29 [4]) [%] | further results
1 | O=C1/C(=C/c2cccc(O)c2)Oc2cc(O)ccc21 | 75.7 | inhibition (HT-29 [1]): Active; inhibition (HT-29 [2]): Active; inhibition (HT-29 [3]): Active; inhibition (HT-29 [5]): Active; IC50 (HT-29 [6]): 1.68 µM
2 | O=C1/C(=C/c2cccc(Cl)c2)Cc2ccccc21 | -2.1 | 
3 | O=C1/C(=C/c2ccc(Cl)o2)Oc2ccccc21 | 62.2 | 
4 | O=C1/C(=C/c2ccccn2)Cc2ccccc21 | 21.9 | 
5 | Nc1ccc(O)c(C(=O)O)c1 [MESALAMINE] | 3.7 | inhibition (HT-29 [7]): inactive; inhibition (HT-29 [8]): 52.8%; inhibition (HT-29 [9]): Active; IC50 (HT-29 [6]): 20400 µM
6 | O=C1/C(=C/c2cccc(Cl)c2)Oc2ccccc21 | 40 | 
7 | COc1ccc(/C=C2\Cc3ccc(O)cc3C2=O)cc1O | 12 | 
8 | COc1ccc(/C=C2\Cc3cc(O)ccc3C2=O)cc1O | -2.5 | 
9 | O=C1/C(=C/c2cccc(-c3ccccc3)c2)Cc2ccccc21 | 33.4 | 
10 | O=C1/C(=C/c2ccccc2O)Cc2ccc(O)cc21 | 71.3 | inhibition (HT-29 [1]): Active; inhibition (HT-29 [2]): Active; inhibition (HT-29 [3]): Active; inhibition (HT-29 [5]): Active; IC50 (HT-29 [6]): 2.29 µM
11 | O=C1/C(=C/c2ccc(Cl)cc2)Cc2c(O)cccc21 | 10.6 | 
12 | O=C(O)c1cc(/N=N/c2ccc(S(=O)(=O)Nc3ccccn3)cc2)ccc1O |  | inhibition (Rattus norvegicus [10]): Active; inhibition (Rattus norvegicus [11]): Active
13 | O=C1/C(=C/c2cccc(F)c2)Cc2ccccc21 | 22.1 | 
14 | O=C1/C(=C/c2ccc(O)cc2)Cc2cccc(O)c21 | 69.8 | 
15 | O=C1/C(=C/c2ccc(Cl)cc2)Oc2cc(O)ccc21 [6-HYDROXY-4'-CHLORO AURONE] | 49 | 
16 | O=C1/C(=C/c2ccc(C(F)(F)F)cc2)Cc2ccccc21 | 22.5 | 
17 | O=C1/C(=C/c2ccccc2O)Cc2ccccc21 | 63.1 | 
18 | O=C1/C(=C/c2ccccc2O)Cc2cccc(O)c21 | 67.9 | 
19 | O=C1/C(=C/c2cccc(O)c2)Cc2ccccc21 | 43.7 | 
20 | O=C1/C(=C/c2cccnc2)Cc2ccccc21 | 28.7 | 
21 | O=C1/C(=C/c2ccc(Cl)cc2)Cc2cc(O)ccc21 | 0.2 | 
22 | O=C1/C(=C/c2ccccc2C(F)(F)F)Cc2ccccc21 | 42.8 | 
23 | O=C1/C(=C/c2cccc(O)c2)Oc2ccccc21 | 75.4 | inhibition (HT-29 [1]): Active; inhibition (HT-29 [2]): Active; inhibition (HT-29 [3]): Active; inhibition (HT-29 [5]): Active; IC50 (HT-29 [6]): 3.17 µM
24 | O=C1/C(=C/c2cccc(O)c2)Cc2c(O)cccc21 | 6.1 | 
25 | COc1ccc(/C=C2\Cc3cccc(O)c3C2=O)cc1O | 35 | 
26 | O=C1/C(=C/c2cccc(O)c2)Cc2ccc(O)cc21 | 62.7 | 
27 | O=C1/C(=C/c2ccccc2)Cc2ccccc21 | 55.3 | inhibition (HT-29 [3]): Active; inhibition (HT-29 [5]): Active; IC50 (HT-29 [6]): 5.75 µM
28 | O=C1/C(=C/c2ccccc2Cl)Oc2ccccc21 | 50.7 | 
29 | COc1cc(C(C)=O)ccc1O |  | inhibition (HT-29 [12]): Active
30 | O=C1/C(=C/c2ccc(O)cc2)Cc2c(O)cccc21 | -1.7 | 

Reference: ChEMBL document CHEMBL4130349, “Discovery and structure-activity relationship studies of 2-benzylidene-2,3-dihydro-1H-inden-1-one and benzofuran-3(2H)-one derivatives as a novel class of potential therapeutics for inflammatory bowel disease” (Eur J Med Chem, 2017)
